Measured values from ChEMBL document CHEMBL4177735, “Design, synthesis and pharmacological evaluation of new acyl sulfonamides as potent and selective Bcl-2 inhibitors” (Bioorg Med Chem, 2018).

Experiments:
Homo sapiens = organism: Homo sapiens; experiment: Selectivity factor, ratio of IC50 for Bad-derived peptide from Bcl-XL (unknown origin) to IC50 for displacement of Bax-derived peptide from Bcl-2 (unknown origin)
Bcl-2-like protein 1 = Bcl-2-like protein 1 (Homo sapiens, UniProt Q07817); experiment: Displacement of Bad-derived peptide from Bcl-XL (unknown origin) by fluorescence polarization assay
[1] = target: Apoptosis regulator Bcl-2 (Homo sapiens, UniProt P10415); experiment: Displacement of Bax-derived peptide from Bcl-2 (unknown origin) by fluorescence polarization assay
Sequence of Apoptosis regulator Bcl-2 (P10415 whole entry): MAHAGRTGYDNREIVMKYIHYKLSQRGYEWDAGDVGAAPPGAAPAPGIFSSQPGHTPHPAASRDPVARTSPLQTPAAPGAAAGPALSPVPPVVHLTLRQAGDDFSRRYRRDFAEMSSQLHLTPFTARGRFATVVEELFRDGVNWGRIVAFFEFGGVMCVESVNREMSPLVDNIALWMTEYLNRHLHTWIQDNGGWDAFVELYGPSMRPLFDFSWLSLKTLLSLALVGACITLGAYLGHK

Sequence of Bcl-2-like protein 1 (Q07817 whole entry): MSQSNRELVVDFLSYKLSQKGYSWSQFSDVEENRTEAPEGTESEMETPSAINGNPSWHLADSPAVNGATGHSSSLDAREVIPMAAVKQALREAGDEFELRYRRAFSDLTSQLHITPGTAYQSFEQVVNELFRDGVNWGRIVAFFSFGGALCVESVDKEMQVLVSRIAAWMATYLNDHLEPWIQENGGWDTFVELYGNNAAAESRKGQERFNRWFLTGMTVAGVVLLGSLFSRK

Compound	Ratio IC50 (Homo sapiens)	IC50 (Bcl-2-like protein 1) [µM]	IC50 [1] [µM]
CC1(C)CCC(c2ccc(Cl)cc2)=C(CN2CCc3cc(C(=O)NS(=O)(=O)c4ccc(N[C@H](CCN5CCOCC5)CSc5ccccc5)c(S(=O)(=O)C(F)(F)F)c4)ccc3C2)C1	1.15	0.0146	0.0126
CC1(C)CCC(c2ccc(Cl)cc2)=C(CN2CCc3sc(C(=O)NS(=O)(=O)c4ccc(N[C@H](CCN5CCOCC5)CSc5ccccc5)c(S(=O)(=O)C(F)(F)F)c4)cc3C2)C1	0.46	0.0266	0.0579
CC1(C)CCC(c2ccc(Cl)cc2)=C(CNC2(Cn3cnc4cc(C(=O)NS(=O)(=O)c5ccc(N[C@H](CCN6CCOCC6)CSc6ccccc6)c(S(=O)(=O)C(F)(F)F)c5)ccc43)CC2)C1	0.27	0.0293	0.108
CC1(C)CCC(c2ccc(Cl)cc2)=C(CN2CCN(c3ccc(C(=O)NS(=O)(=O)c4ccc(NC5(CN6CCOCC6)CC5)c(S(=O)(=O)C(F)(F)F)c4)cc3)CC2)C1	1.36	0.0553	0.0407
CN(C)c1ccc(S(=O)(=O)NC(=O)c2ccc(N3CCN(CC4=C(c5ccc(Cl)cc5)CCC(C)(C)C4)CC3)cc2)cc1S(=O)(=O)C(F)(F)F	3.34	0.218	0.0651
Cn1ccc(S(=O)(=O)NC(=O)c2ccc(N3CCN(CC4=C(c5ccc(Cl)cc5)CCC(C)(C)C4)CC3)cc2)n1	> 14.8	> 1	0.0674
CC1(C)CCC(c2ccc(Cl)cc2)=C(CN2CCN(c3ccc(C(=O)NS(=O)(=O)c4ccc(OCC5(CN6CCOCC6)COC5)c(S(=O)(=O)C(F)(F)F)c4)cc3)CC2)C1	3.4	0.0493	0.0145
CC1(C)CCC(c2ccc(Cl)cc2)=C(CNC2(Cn3cnc4ccc(C(=O)NS(=O)(=O)c5ccc(N[C@H](CCN6CCOCC6)CSc6ccccc6)c(S(=O)(=O)C(F)(F)F)c5)cc43)CC2)C1	–	> 1	> 1
CN1CCN(S(=O)(=O)NC(=O)c2ccc(N3CCN(CC4=C(c5ccc(Cl)cc5)CCC(C)(C)C4)CC3)cc2)CC1	> 5.93	> 1	0.168
CC1(C)CCC(c2ccc(Cl)cc2)=C(CN2CCc3ccc(C(=O)NS(=O)(=O)c4ccc(N[C@H](CCN5CCOCC5)CSc5ccccc5)c(S(=O)(=O)C(F)(F)F)c4)cc3CC2)C1	0.13	0.0256	0.193
CN(CCO)c1ccc(S(=O)(=O)NC(=O)c2ccc(N3CCN(CC4=C(c5ccc(Cl)cc5)CCC(C)(C)C4)CC3)cc2)cc1S(=O)(=O)C(F)(F)F	2.53	0.116	0.046
CC1(C)CCC(c2ccc(Cl)cc2)=C(CN2CCN(c3ccc(C(=O)NS(C)(=O)=O)cc3)CC2)C1	> 2.02	> 1	0.495
CC1(C)CCC(c2ccc(Cl)cc2)=C(CN2CCN(c3ccc(C(=O)NS(=O)(=O)c4ccc(N[C@@H](CC5CC5)C(=O)N5CCOCC5)c(S(=O)(=O)C(F)(F)F)c4)cc3)CC2)C1	0.87	0.0593	0.0682
CC1(C)CCC(c2ccc(Cl)cc2)=C(CN2CCc3nc(C(=O)NS(=O)(=O)c4ccc(N[C@H](CCN5CCOCC5)CSc5ccccc5)c(S(=O)(=O)C(F)(F)F)c4)sc3C2)C1	0.35	0.0132	0.0381
CC1(C)CCC(c2ccc(Cl)cc2)=C(CN2CCN(c3ccc(C(=O)NS(=O)(=O)c4ccc(NC5(CN6CC(F)(F)C6)CC5)c(S(=O)(=O)C(F)(F)F)c4)cc3)CC2)C1	9.83	0.342	0.0348
CC1(C)CCC(c2ccc(Cl)cc2)=C(CN2CCN(c3ccc(C(=O)NS(=O)(=O)c4ccc(N[C@@H](CC5CC5)CN5CCOCC5)c(S(=O)(=O)C(F)(F)F)c4)cc3)CC2)C1	1.62	0.0335	0.0207
CC1(C)CCC(c2ccc(Cl)cc2)=C(CN2CCN(c3ccc(C(=O)NS(=O)(=O)c4ccc(N5CC(F)(F)C5)c(S(=O)(=O)C(F)(F)F)c4)cc3)CC2)C1	3.48	0.162	0.0466
CC1(C)CCC(c2ccc(Cl)cc2)=C(CN2CCN(c3ccc(C(=O)NS(=O)(=O)c4ccc(OCC5(CN6CC(F)(F)C6)COC5)c(S(=O)(=O)C(F)(F)F)c4)cc3)CC2)C1	6.06	0.105	0.0173
